What all share (assay): KiNativ, MOLM13 live cells
Type in all cases: cell-based

In one experiment the target is BTK (Homo sapiens, UniProt Q06187). Particulars: 100 nM, 2 hours; Activation Loop. The procedure: (§1) Samples were analyzed by KiNativ in situ kinase profiling by ActivX Biosciences.
Another experiment concerns the target CDK5 (Homo sapiens, UniProt Q00535). Particulars: MOLM-13, 2 h, 100 nM. The procedure: as §1
The target of another experiment is CDK6 (Homo sapiens, UniProt Q00534). Conditions: MOLM-13; 100 nM, 2 hours; Lys2; read-out: Inhibition vs DMSO. The procedure: as §1
In a further experiment the target is CSK (Homo sapiens, UniProt P41240). Particulars: 100 nM, 2 hours; Activation Loop. The procedure: as §1
CSK, sequence (P41240 whole entry): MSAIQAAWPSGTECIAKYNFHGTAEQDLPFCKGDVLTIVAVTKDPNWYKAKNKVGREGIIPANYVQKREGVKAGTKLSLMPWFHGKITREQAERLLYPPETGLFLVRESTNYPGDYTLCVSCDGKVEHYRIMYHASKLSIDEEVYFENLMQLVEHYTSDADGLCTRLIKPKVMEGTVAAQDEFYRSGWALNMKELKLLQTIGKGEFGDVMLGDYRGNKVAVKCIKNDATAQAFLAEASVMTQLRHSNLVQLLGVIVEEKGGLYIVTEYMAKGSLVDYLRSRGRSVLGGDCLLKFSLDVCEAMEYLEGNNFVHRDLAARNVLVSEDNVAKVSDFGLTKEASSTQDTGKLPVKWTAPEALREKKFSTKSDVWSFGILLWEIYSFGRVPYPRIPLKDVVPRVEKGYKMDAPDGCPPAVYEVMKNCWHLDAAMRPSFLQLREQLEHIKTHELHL
Another experiment has as its target CaMK2g (Homo sapiens, UniProt Q13555). Particulars: MOLM-13; 100 nM, 2 hours; Lys1; read-out: Inhibition vs DMSO. The procedure:
as §1

Another experiment concerns the target T1, ILK (Homo sapiens, UniProt Q13418).
T1 sequence (Q13418 1-452): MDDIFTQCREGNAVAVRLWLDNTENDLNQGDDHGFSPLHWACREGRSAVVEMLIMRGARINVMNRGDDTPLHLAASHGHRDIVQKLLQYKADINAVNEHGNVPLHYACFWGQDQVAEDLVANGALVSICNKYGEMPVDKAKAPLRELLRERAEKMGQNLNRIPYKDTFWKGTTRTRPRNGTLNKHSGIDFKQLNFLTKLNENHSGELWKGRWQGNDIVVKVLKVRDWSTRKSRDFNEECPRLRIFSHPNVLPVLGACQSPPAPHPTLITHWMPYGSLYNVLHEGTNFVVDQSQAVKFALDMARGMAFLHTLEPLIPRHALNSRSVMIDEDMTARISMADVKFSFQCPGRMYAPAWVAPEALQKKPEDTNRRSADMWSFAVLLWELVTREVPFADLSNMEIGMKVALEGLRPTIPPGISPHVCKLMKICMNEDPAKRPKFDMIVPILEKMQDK
Conditions: MOLM-13, 2 h, 100 nM. The procedure: as §1

In the next experiment the target is T2, JAK2 domain2 (Homo sapiens, UniProt O60674).
T2 construct: JAK2 domain2
Conditions: 100 nM, 2 hours; Activation Loop. The procedure:
as §1

The target in the next experiment is T3, MAP2K4 (Homo sapiens, UniProt P45985).
T3 sequence (P45985 1-399): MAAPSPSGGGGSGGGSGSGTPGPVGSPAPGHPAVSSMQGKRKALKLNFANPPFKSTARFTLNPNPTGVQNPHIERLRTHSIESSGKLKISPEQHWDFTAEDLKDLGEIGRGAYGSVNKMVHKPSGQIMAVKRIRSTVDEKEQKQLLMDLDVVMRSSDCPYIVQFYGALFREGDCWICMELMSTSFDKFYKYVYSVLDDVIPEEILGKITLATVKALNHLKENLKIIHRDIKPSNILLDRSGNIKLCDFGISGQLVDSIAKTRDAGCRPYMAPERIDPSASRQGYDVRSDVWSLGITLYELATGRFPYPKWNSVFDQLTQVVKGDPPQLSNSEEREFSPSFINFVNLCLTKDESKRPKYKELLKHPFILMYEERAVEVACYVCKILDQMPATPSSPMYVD
Particulars: MOLM-13, 2 h, 100 nM. The procedure: as §1

The next experiment has as its target NEK2 (Homo sapiens, UniProt P51955). Particulars: MOLM-13; 100 nM, 2 hours; Lys2; read-out: Inhibition vs DMSO. The procedure: as §1
For the next experiment, the target named is PAK2 (Homo sapiens, UniProt Q13177). Particulars: MOLM-13, 2 h, 100 nM. The procedure: as §1
PAK2, sequence (Q13177 whole entry): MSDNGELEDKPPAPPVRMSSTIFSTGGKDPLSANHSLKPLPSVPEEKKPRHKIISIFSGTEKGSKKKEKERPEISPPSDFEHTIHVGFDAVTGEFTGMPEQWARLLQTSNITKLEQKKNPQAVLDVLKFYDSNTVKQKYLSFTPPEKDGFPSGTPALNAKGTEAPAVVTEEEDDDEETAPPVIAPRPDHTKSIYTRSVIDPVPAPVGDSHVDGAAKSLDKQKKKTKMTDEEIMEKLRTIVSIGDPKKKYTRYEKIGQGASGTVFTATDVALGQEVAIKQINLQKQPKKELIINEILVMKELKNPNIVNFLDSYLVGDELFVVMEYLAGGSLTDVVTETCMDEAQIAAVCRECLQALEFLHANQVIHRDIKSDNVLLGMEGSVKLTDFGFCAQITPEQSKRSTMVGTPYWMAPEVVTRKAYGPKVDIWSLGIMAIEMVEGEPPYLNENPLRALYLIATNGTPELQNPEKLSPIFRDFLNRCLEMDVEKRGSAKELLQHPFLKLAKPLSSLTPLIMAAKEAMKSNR
Another experiment deals with PFTAIRE1 (Homo sapiens, UniProt O94921). Particulars: 100 nM, 2 hours; Lys1. The procedure: as §1
In a further experiment the target is PIP4K2A (Homo sapiens, UniProt P48426). Particulars: MOLM-13; 100 nM, 2 hours; ATP; read-out: Inhibition vs DMSO. The procedure: as §1
PIP4K2A, sequence (P48426 whole entry): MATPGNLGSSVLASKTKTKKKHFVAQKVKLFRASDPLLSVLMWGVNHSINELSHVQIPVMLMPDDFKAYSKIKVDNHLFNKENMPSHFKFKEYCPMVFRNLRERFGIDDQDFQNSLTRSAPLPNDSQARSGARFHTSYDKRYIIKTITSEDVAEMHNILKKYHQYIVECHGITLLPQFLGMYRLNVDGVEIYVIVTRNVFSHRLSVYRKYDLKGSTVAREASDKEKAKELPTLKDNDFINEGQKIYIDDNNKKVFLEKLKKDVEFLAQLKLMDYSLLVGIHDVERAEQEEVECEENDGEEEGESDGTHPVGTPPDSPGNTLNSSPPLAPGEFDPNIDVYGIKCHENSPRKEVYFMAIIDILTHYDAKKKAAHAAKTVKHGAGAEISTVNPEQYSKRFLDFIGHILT
Another experiment addresses PIP4K2B (Homo sapiens, UniProt P78356). Conditions: MOLM-13; 100 nM, 2 hours; ATP; read-out: Inhibition vs DMSO. The procedure: as §1
Another experiment concerns the target PLK1 (Homo sapiens, UniProt P53350). Particulars: MOLM-13, 2 h, 100 nM. The procedure:
as §1

In the next experiment the target is RIPK3 (Homo sapiens, UniProt Q9Y572). Conditions: MOLM-13; 100 nM, 2 hours; Lys2; read-out: Inhibition vs DMSO. The procedure:
as §1

A further experiment addresses RSKL1 (Homo sapiens, UniProt Q96S38). Particulars: MOLM-13; 100 nM, 2 hours; ATP; read-out: Inhibition vs DMSO. The procedure: as §1
A further experiment has as its target T4, ZAP70 (Homo sapiens, UniProt P43403).
T4 sequence (P43403 1-619): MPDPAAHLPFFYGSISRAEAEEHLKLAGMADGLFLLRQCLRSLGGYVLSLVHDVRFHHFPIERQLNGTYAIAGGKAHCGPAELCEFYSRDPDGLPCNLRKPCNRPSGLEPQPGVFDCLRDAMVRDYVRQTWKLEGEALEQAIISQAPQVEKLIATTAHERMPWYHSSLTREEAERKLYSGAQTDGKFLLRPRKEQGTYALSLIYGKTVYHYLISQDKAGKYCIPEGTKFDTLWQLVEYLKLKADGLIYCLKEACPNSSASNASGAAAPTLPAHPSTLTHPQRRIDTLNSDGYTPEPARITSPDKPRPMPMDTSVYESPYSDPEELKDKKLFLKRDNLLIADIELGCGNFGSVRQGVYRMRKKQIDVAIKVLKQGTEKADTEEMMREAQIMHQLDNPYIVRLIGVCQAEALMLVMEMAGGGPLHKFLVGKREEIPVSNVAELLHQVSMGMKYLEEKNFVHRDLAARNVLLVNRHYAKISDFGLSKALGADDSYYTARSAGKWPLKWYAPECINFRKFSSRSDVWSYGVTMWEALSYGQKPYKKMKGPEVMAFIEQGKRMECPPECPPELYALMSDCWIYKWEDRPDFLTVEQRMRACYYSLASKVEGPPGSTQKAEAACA
Conditions: MOLM-13; 100 nM, 2 hours; Activation Loop; read-out: Inhibition vs DMSO. The procedure: as §1

For the next experiment, the target named is p38b (Homo sapiens, UniProt Q15759). Conditions: MOLM-13; 100 nM, 2 hours; Other; read-out: Inhibition vs DMSO. The procedure:
as §1

The mark [1] stands for this setting: Lys1, read-out: Inhibition vs DMSO.
The mark [2] stands for this setting: Lys2, read-out: Inhibition vs DMSO.

Where two headings read alike, the source gives them in different places.

PLK1, sequence (P53350 whole entry): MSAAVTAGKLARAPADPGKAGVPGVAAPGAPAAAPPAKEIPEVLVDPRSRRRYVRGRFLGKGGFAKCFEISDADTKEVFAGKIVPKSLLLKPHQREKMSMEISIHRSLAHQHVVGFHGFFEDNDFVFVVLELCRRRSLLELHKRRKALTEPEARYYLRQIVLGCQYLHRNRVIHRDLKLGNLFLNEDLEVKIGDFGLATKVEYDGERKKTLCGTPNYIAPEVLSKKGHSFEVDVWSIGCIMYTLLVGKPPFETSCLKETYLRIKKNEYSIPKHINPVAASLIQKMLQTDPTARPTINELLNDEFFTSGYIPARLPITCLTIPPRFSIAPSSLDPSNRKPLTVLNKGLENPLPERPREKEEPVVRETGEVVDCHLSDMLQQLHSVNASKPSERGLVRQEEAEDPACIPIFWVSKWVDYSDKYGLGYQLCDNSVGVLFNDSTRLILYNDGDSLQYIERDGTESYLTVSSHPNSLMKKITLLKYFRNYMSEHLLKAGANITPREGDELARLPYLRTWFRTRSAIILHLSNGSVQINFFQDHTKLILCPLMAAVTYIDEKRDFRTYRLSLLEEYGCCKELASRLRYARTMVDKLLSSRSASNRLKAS
CDK5, sequence (Q00535 whole entry): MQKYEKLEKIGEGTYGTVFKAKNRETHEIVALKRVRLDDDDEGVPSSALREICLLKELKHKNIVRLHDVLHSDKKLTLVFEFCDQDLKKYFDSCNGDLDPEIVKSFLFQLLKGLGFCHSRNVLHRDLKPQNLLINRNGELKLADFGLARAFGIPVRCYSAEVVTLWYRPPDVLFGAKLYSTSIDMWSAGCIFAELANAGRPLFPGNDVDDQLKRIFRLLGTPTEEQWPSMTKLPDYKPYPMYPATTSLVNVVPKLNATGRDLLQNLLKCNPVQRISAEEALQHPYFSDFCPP
BTK, sequence (Q06187 whole entry): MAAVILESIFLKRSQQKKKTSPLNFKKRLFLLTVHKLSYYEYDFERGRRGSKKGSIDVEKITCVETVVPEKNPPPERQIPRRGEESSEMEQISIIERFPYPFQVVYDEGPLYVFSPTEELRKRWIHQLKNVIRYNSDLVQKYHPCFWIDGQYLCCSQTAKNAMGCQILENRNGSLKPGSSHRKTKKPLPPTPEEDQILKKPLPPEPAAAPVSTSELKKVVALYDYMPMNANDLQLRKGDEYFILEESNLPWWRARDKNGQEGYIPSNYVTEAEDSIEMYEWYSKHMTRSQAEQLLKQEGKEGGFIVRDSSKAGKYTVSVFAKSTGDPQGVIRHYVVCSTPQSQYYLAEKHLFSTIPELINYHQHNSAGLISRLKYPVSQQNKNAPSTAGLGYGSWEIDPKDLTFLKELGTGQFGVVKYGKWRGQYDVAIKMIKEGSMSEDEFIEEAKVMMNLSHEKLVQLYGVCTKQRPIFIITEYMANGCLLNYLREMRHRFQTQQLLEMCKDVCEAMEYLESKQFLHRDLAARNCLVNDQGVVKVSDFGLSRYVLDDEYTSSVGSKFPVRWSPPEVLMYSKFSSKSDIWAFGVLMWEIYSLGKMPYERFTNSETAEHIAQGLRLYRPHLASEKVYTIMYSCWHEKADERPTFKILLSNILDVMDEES
CaMK2g, sequence (Q13555 whole entry): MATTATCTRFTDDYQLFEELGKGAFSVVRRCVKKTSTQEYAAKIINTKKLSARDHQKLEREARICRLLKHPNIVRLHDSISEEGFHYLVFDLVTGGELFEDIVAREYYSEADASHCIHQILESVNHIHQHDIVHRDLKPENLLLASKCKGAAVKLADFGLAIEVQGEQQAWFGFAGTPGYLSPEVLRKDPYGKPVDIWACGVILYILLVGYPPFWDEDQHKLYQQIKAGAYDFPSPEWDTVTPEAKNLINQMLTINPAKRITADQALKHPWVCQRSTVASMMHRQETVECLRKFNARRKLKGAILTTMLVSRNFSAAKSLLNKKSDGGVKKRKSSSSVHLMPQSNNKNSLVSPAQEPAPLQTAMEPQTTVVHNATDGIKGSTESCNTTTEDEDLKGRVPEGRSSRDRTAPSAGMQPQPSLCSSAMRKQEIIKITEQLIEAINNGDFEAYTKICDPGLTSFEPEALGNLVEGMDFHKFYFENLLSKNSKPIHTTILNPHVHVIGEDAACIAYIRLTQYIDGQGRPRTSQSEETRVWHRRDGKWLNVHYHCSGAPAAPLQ
p38b, sequence (Q15759 whole entry): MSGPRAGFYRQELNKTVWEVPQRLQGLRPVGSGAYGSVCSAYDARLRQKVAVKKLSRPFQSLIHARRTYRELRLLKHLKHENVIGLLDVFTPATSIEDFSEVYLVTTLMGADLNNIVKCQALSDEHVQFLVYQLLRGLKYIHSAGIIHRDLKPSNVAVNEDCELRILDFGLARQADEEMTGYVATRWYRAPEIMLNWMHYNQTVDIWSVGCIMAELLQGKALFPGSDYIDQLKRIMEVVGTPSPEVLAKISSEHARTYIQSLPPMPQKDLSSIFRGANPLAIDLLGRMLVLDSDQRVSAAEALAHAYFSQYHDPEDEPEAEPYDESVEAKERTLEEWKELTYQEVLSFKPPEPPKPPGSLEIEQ
PIP4K2B, sequence (P78356 whole entry): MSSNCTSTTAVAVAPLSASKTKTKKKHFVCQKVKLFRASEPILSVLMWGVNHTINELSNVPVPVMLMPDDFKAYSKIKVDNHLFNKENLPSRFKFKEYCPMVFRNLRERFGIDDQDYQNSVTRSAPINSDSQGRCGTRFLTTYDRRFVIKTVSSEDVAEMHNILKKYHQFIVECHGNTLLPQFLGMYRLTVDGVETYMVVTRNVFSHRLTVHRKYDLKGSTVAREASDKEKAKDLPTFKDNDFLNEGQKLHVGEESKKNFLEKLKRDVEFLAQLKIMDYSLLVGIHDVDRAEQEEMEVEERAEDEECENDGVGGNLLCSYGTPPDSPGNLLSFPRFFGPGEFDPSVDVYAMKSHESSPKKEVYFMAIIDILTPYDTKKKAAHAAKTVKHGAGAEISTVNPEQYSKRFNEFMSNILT
NEK2, sequence (P51955 whole entry): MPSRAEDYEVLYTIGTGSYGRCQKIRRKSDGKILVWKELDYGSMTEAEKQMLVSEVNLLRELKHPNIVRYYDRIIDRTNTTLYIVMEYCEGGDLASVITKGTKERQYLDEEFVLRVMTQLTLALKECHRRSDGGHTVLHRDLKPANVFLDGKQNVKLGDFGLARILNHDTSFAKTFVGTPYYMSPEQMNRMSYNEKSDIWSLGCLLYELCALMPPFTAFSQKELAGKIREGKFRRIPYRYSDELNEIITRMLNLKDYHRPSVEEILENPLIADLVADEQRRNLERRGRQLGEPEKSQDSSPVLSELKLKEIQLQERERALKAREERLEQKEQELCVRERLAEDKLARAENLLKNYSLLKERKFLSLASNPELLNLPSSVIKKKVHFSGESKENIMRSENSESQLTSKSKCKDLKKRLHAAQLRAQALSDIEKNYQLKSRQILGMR

Usually inhibition stands for the change of the read-out against control, counted positive when it falls. For `CN1CCN(Cc2ccc(Nc3ncc(Cl)c(Nc4ccccc4S(=O)(=O)N(C)C)n3)cc2)CC1` [TP-0903], the “Inhibition vs DMSO” value on BTK is recorded as 57.0%; on CSK, -5.0%; at JAK2 domain2 it was -68.6%; at PFTAIRE1, 29.5%. Moreover, the inhibition at 0.1 µM on CDK5 (setting [1]) was 31.9%; at CDK5 (setting [2]), 20.7%; at CDK6, 80.8%; on CaMK2g, 25.8%; at ILK (setting [1]), 6.4%; at ILK (Protein Kinase Domain, read-out: Inhibition vs DMSO), -1.3%. Further, the inhibition at 0.1 µM at MAP2K4 (Activation Loop, read-out: Inhibition vs DMSO) is 4.3%; at MAP2K4 (setting [1]), -38.6%; on MAP2K4 (setting [2]), 4.1%; at NEK2, -4.6%; on PAK2 (setting [1]) it was -46.5%; at PAK2 (Other, read-out: Inhibition vs DMSO), -26.6%. In addition, the inhibition at 0.1 µM on PIP4K2A was -28.1%; at PIP4K2B, -16.2%; on PLK1 (setting [1]), 4.9%; at PLK1 (setting [2]), 0.247%; at RIPK3, 6.4%; on RSKL1, -8.3%. Besides, the inhibition at 0.1 µM on ZAP70 was 26.3%; on p38b, -5%.
